Where no end group is shown, it is not given here.
Assays:
Assay type in all cases: cell-based, human
[1] = test system: release of IL-5 upon T cell activation; experiment: Fluorospot assay, IL-5 release (DK1-TCL01, US1-TCL01); settings: head prints TCL-02 DK1; text: 25 TCL-01 DK1 lines
Description: (§1) Grass allergic donors were recruited (cohort DK1 including 30 grass allergic individuals, DK2 including 24 grass allergic individuals and US1 including 15 grass allergic individuals). PBMCs were isolated from freshly drawn heparinized blood by gradient centrifugation on lymphoprep (Nycomed, Norway), washed twice and re-suspended in RPMI 1640 medium with HEPES and ultraglutamine (Cambrex, Belgium) supplemented with 5% v/v human AB-serum (Cambrex, Belgium), 100 units/ml penicillin, and 0.1 mg/ml streptomycin (Sigma, St Louis, USA) (referred to as 5% AB-medium). Aliquots of the isolated PBMCs were frozen and were thawed later to stimulate the T cell lines. Additionally either fresh or thawed PBMCs were used as antigen presenting cells (APCs) in the proliferation assay as described later. In some cases the PBMCs were freezed at this stage and thawed later on to continue the experiment as described in the following. The isolated PBMCs (fresh or thawed) were CD8 depleted by MACS magnetic depletion according to the manufacturer's instructions (Miltenyi Biotec, Bergisch Gladbach, Germany). On day 0 the CD8-depleted PBMCs (2×10^6/ml) were stimulated in 1 ml bulk cultures in AB medium in 24 well plates (Nunc, Denmark) with the mixture of natural allergens: nPhl p 1 (0.5 μg/ml), mix of nPhl p 2/nPhl p 3 (1.0 μg/ml), nPhl p 4 (0.5 μg/ml), nPhl p 5 (0.5 μg/ml) and nCyn d 1 (0.5 μg/ml). Amount of 65 U, 30 U, and 30 U recombinant IL-2 (Chiron, USA) were added per well at days 5, 6 and 7, respectively. On day 14 cells were harvested to obtain T cell line generation 01 (referred to as TCL01).
(§2) On day 14 the T cells of TCL01 were isolated, washed and counted. The isolated T cells of TCL01 generation were used to perform either ELISpot or Fluorospot assay. TCL01 were further re-stimulated as described in the next paragraph for use in T cell proliferation. The aliquot for use in T cell proliferation was re-stimulated on day 14 to carry out proliferation experiment at day 24.
(§3) In the Fluorospot assays, release of IL-5 and IFN-γ upon T cell activation (of donor derived lines DK1-TCL01, and US1-TCL01) with a peptide or a peptide-mix described herein was measured by Fluorospot assay kit (Mabtech AB) and procedures were followed as per manufacturer's instructions. Briefly anti-human IL-5 and anti-human IFN-γ coated 96 well plates were obtained and blocked with 10% AB serum in RPMI. The plates were washed thoroughly and the isolated T cells were plated and incubated with either single peptides (2 μg/ml) or peptide mixes (2 μg/ml), or allergens nPhl p1, nPhl p 2, nPhl p 3, nPhl p 4, nPhl p 5, Cyn d 1 at 2 μg/ml for 20 hrs/37° C./5% CO2. After the incubation time the cells were removed by emptying the plate. Detection antibodies 7-B6-1-FS-FITC (1:200) and 5A10-biotin (2 μg/ml) were diluted in PBS-0.1% BSA and were added to the plate and incubated for 2 hours/room temperature (RT). There-after the plates were washed and anti-FITC-green (1:200) and SA-Red (1:200) diluted in PBS±0.1% BSA were added and incubated for 1 hour/RT/dark. After the incubation period the plates were washed, emptied and fluorescence enhancer solution was added for 15 minutes/RT. Plates were emptied, fluorescence enhancer solution was firmly tapped out against a clean paper, soft plastic under drain was removed and the plates were left in the dark to dry. The counts were inspected in a fluorospot reader. Hit criteria for peptide were 20 SFCs/10^6 PBMCs, p≤0.05 and poisson 0.05 stimulated cells compared to background, and a stimulation index (SI)≥2.
(§4) The peptides were identified as hits if they fulfilled the criteria as mentioned below where stimulation index (SI) value of 2 or above, Poisson value=<0.05 and P value=<0.05, SFC>=20 (IL-5/IFN-g)/10^6 cells and CPM>=1000 (proliferation) SI can be defined as [[…]/medium control] in a Fluorospot assay and [counts per minute (cpm)/medium control] in a proliferation assay.

[2] = test system: release of IFN-γ upon T cell activation; experiment: Fluorospot assay, IFN-γ release (DK1-TCL01, US1-TCL01); settings: head prints TCL-02 DK1; 17 TCL-01 DK1 lines
Description: as §1, §2, §3, §4

[3] = test system: allergen specific T cells; experiment: T cell proliferation assay (72 h) on donor derived T cell lines (TCL02/TCL03); settings: for Proliferation % donor coverage (TCL-02 DK1): T cell lines TCL-02 DK1, 30 donors, hit criteria SI>=2, CPM>=1000; for Proliferation strength (TCL-02 DK1): T cell lines TCL-02 DK1, strength of response (average relative magnitude)
Method in brief: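 CD8-depleted PBMCs from grass-allergic donors stimulated with natural grass allergen mix (nPhl p 1 0.5 μg/ml) to raise T cell lines; restimulated with irradiated APCs, allergens or PHA-P (0.5 μg/ml) plus rIL-2. Proliferation to overlapping 20-mer and selected 15-mer grass peptides tested with TCL02 (day 24) or TCL03 (day 34).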

Compound	IL-5-Fluorospotr % donor coverage (TCL-02 DK1) [1]	IFN-gamma % donor coverage (TCL-02 DK1) [2]	Proliferation % donor coverage (TCL-02 DK1) [3]	Proliferation strength (TCL-02 DK1) [3]
YASGKVWGQKYFKGNFERLA-OH [compound 58]	4.00%	0.00%	20.00%	2.40
RNEVVNDVSTYASGKVWGQK-OH [compound 57]	4.00%	4.00%	16.67%	2.00
EAAFNNAIKASTGGAYESYK-OH [compound 83]	0.00%	0.00%	10.00%	0.90
WLDAKSTWYGKPTGAGPKDN-OH [compound 1]	24.00%	4.00%	26.67%	4.70
TSKLDAAYKLAYKTAEGATP-OH [compound 65]	4.00%	4.00%	30.00%	5.70
KSSKPLVGPFNFRFMSKGGM-OH [compound 39]	12.00%	4.00%	13.33%	1.10
TALKKAITAMSEAQKAAKPA-OH [compound 85]	4.00%	0.00%	20.00%	2.80
KPAAAATATATSAVGAATGA-OH [compound 87]	0.00%	0.00%	10.00%	0.70
LVKYVNGDGDVVAVDIKEKG-OH [compound 9]	20.00%	8.00%	26.67%	1.60
VPKVTFTVEKGSNEKHLAVL-OH [compound 30]	0.00%	0.00%	3.33%	0.40
PMKSSWGAIWRIDPKKPLKG-OH [compound 108]	4.00%	0.00%	33.33%	4.10
EIKSTKPEASSGEPVVVHIT-OH [compound 3]	8.00%	8.00%	36.67%	3.40
SMGDDHFWAVRGGGGESFGI-OH [compound 49]	20.00%	12.00%	40.00%	5.60
RASYEIKSKEPVESSGEPVL-OH [compound 96]	0.00%	0.00%	6.67%	0.60
CC[C@H](C)[C@H](NC(=O)[C@@H](N)CC(=O)O)C(=O)N[C@@H](CC(N)=O)C(=O)N[C@H](C(=O)NCC(=O)N[C@@H](Cc1ccccc1)C(=O)N[C@@H](CCCCN)C(=O)N[C@@H](C)C(=O)N[C@@H](C)C(=O)N[C@H](C(=O)N[C@@H](C)C(=O)N[C@@H](C)C(=O)N[C@@H](C)C(=O)N[C@@H](C)C(=O)NCC(=O)O)C(C)C)C(C)C [compound 131]	22.22%	0.00%	55.55%	6.50
AAESSSKAALTSKLDAAYKL-OH [compound 78]	0.00%	0.00%	16.67%	3.00
CC[C@H](C)[C@H](NC(=O)[C@@H](NC(=O)[C@H](CC(=O)O)NC(=O)[C@H](CCC(=O)O)NC(=O)[C@H](C)NC(=O)[C@H](CCC(=O)O)NC(=O)[C@@H](N)[C@@H](C)O)C(C)C)C(=O)N1CCC[C@H]1C(=O)N[C@@H](CCC(=O)O)C(=O)NCC(=O)N[C@@H](Cc1c[nH]c2ccccc12)C(=O)N[C@@H](CCCCN)C(=O)N[C@@H](C)C(=O)N[C@@H](CC(=O)O)C(=O)N[C@H](C(=O)N[C@@H](CO)C(=O)N[C@@H](Cc1ccc(O)cc1)C(=O)N[C@@H](CCC(=O)O)C(=O)N[C@@H](CO)C(=O)N[C@@H](CCCCN)C(=O)O)[C@@H](C)O [compound 13]	16.00%	8.00%	43.33%	8.10
ASGYKDVDKPPFDGMTASGN-OH [compound 93]	0.00%	0.00%	16.67%	2.40
RGAAPDDHGGASGYKDVDKP-OH [compound 92]	0.00%	0.00%	3.33%	0.60
DKYRTFVATFGAASNKAFAE-OH [compound 64]	16.00%	0.00%	36.67%	6.00
TSAVGAATGAATAATGGYKV-OH [compound 88]	0.00%	0.00%	0.00%	0.00

— patent US20180207228A1, “PEPTIDE COMBINATIONS AND USES THEREOF FOR TREATING GRASS ALLERGY” (ALK-Abelló A/S, priority 2015, published 2018)
